Experimental data reported in publication PMC3672506, “A useful EGFR-TK ligand for tumor diagnosis with SPECT: development of radioiodinated 6-(3-morpholinopropoxy)-7-ethoxy-4-(3′-iodophenoxy)quinazoline” (Annals of Nuclear Medicine, 2013).
Read-outs that look alike come from different tables or passages of the source.

Columns and labels:
A431 tumor [1] = experiment: Tumor uptake of radioiodinated ligands in A431 tumor-bearing mice; assay type: in vivo, balb/c nude mice; settings: for accumulation in tumors: i.v.
Experimental: A suspension of 1 × 10^7 A431 cells in 0.1 mL of medium was inoculated subcutaneously in male balb/c nude mice (4 weeks old, 20–25 g, n = 3). After approximately 2 weeks, when the solid tumor had grown to optimal size, the mice were used for tumor uptake studies. [^125I]6a–d (37 kBq, 74 TBq/mmol) in 0.1 mL of saline was injected intravenously into tumor-bearing mice via the lateral tail vein. At 1 or 24 h after administration, the animals were sacrificed. Samples of tumor were excised and weighed. Radioactivity was measured using a well-type NaI(Tl) scintillation gamma counter. The results were expressed in terms of percentage of injected dose per gram of tumor.

A431 tumor [2] = assay type: in vivo, balb/c nude mice; settings: for Blood radioactivity / Brain radioactivity / Heart radioactivity / Kidney radioactivity / Liver radioactivity / Lung radioactivity / Muscle radioactivity / Pancreas radioactivity / Spleen radioactivity / Stomach radioactivity / Tumor radioactivity: A-431 tumor-bearing mice, i.v.
Experimental: The animals were euthanized 1, 6, 12 or 24 h after injection of the radioligands (37 kBq, 74 TBq/mmol in 0.1 mL saline), and the distributions were studied as described above.
In particular, the radioactivity accumulated in the liver 24 h after injection was approximately 1/50 of the radioactivity 1 h after injection. Thus, tumor-to-organ ratios for [^125I]PYK 24 h after injection had desirable values (Fig. 3b: tumor to lung: 8.5, tumor to kidney: 4.3, tumor to liver: 3.0) for tumor diagnostic imaging.

[3] = target: EGFR-TK in A431 cell membranes (Homo sapiens, UniProt P00533); assay type: binding
Experimental: (§1) Assays were carried out as described in the previous section. Crude P2 membrane fractions (A431or NALM6, 0.1 mg of protein, 10 μL) and [^125I]PYK (1–300 nM, 100 μL, 0.74 kBq) were used. […] Specific binding was defined as the difference between the total and non-specific binding. Scatchard plot analysis of the saturation binding data was used to determine the equilibrium dissociation constant (K d) and the maximal number of binding sites (B max).
(§2) The crude P2 membrane fraction from A431 or NAlM6 cells were used in further binding experiments for pharmacological characterization. […] While, in the NALM6 as a negative-EGFR leukemia cell line, [^125I]PYK binding to cell membranes was undetectable.

NALM6 cell membranes = assay type: binding; settings: NALM6, negative-EGFR leukemia cell line
Experimental: as §1, §2

A431 tumor [4] = experiment: SPECT/CT imaging of A431 tumor-bearing mice; assay type: in vivo; settings: 24 h after injection
Experimental: The mice underwent SPECT/CT studies when A431 tumors had grown to optimal size (approximately 2 weeks after inoculation). ^125I gamma camera imaging and image processing were performed using a small-animal imaging system with pinhole collimation (aperture diameter = 1 mm, focal length = 9 cm) and a 15- to 45 keV photo peak energy window (PET/SPECT/CT FX system, Gamma Medica Ideas). […] 24 h after injection, SPECT scans were performed at 64 projections over 360° (ROR = 4.5 cm, 60 s/projection). Reconstructed data from SPECT and CT were visualized and coregistered using AMIRA 3.1.
[^125I]PYK-SPECT images of tumors were very clear without interference from radioactivity in peripheral organs.

[5] = A431 tumor-bearing mice, 24 h after injection

EGFR-TK in A431 cell membranes, sequence (P00533 25-1210): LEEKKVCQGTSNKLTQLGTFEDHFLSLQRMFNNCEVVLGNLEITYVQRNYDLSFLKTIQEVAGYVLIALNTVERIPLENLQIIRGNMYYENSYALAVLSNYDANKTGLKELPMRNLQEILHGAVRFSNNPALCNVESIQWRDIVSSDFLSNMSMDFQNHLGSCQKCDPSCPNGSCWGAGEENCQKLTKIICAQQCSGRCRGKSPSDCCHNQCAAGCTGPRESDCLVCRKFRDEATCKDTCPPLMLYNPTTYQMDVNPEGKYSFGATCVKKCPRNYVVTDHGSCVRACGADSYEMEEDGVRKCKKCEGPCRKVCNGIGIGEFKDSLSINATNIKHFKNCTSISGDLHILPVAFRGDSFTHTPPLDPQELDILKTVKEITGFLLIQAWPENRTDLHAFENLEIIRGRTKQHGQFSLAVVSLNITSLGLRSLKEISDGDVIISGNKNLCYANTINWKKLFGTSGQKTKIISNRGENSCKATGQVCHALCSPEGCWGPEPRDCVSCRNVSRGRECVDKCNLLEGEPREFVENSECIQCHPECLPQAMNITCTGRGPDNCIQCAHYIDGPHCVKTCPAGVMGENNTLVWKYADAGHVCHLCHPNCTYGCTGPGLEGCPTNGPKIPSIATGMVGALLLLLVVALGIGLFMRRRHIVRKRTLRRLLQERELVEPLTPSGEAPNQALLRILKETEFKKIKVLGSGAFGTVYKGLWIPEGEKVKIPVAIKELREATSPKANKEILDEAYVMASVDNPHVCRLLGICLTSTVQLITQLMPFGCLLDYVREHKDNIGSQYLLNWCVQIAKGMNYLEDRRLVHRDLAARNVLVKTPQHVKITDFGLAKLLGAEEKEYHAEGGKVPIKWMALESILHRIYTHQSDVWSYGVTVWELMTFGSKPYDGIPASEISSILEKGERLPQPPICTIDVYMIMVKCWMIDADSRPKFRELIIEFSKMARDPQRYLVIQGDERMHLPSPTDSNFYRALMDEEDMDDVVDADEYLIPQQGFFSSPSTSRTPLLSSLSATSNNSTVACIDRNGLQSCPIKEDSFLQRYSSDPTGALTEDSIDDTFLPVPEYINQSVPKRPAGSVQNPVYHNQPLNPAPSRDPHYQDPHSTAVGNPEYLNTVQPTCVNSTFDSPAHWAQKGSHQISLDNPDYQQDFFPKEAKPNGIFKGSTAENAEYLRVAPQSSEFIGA

## CCOc1cc2ncnc(Oc3cccc([125I])c3)c2cc1OCCCN1CCOCC1 [[^125I]PYK]
A431 tumor [1]; 1 h post injection
  tumor accumulation relative to [125I]PHY: approximately 8 folds
A431 tumor [1]; [5]
  retention in tumors (in words): good retention
  accumulation in tumors: 1.53 ± 0.15 % ID/g tissue
A431 tumor [1]; A431 tumor-bearing mice, 1 h post injection
  accumulation in tumors: 4.37 ± 0.65 % ID/g tissue
A431 tumor [2]; A431 tumor-bearing mice
  liver radioactivity 24 h after injection relative to 1 h after injection: approximately 1/50
A431 tumor [2]; [5]
  tumor to kidney ratio: 4.3
  tumor to liver ratio: 3.0
  tumor to lung ratio: 8.5
  tumor/blood ratio: 57.0
  tumor/muscle ratio: 45.5
A431 tumor [2]; 1 h after injection
  Blood radioactivity: 0.80 ± 0.14 % injected dose per gram
  Brain radioactivity: 0.88 ± 0.07 % injected dose per gram
  Heart radioactivity: 1.19 ± 0.17 % injected dose per gram
  Kidney radioactivity: 7.40 ± 0.66 % injected dose per gram
  Liver radioactivity: 27.0 ± 1.29 % injected dose per gram
  Lung radioactivity: 4.14 ± 0.48 % injected dose per gram
  Muscle radioactivity: 1.34 ± 0.21 % injected dose per gram
  Pancreas radioactivity: 2.80 ± 0.19 % injected dose per gram
  Spleen radioactivity: 2.14 ± 0.04 % injected dose per gram
  Stomach radioactivity: 6.10 ± 2.08 % injected dose per gram
  Tumor radioactivity: 4.37 ± 0.65 % injected dose per gram
A431 tumor [2]; 6 h after injection
  Blood radioactivity: 0.20 ± 0.04 % injected dose per gram
  Brain radioactivity: 0.17 ± 0.03 % injected dose per gram
  Heart radioactivity: 0.50 ± 0.04 % injected dose per gram
  Kidney radioactivity: 3.53 ± 0.72 % injected dose per gram
  Liver radioactivity: 7.89 ± 1.45 % injected dose per gram
  Lung radioactivity: 2.29 ± 0.69 % injected dose per gram
  Muscle radioactivity: 0.39 ± 0.02 % injected dose per gram
  Pancreas radioactivity: 1.59 ± 0.25 % injected dose per gram
  Spleen radioactivity: 1.02 ± 0.18 % injected dose per gram
  Stomach radioactivity: 1.23 ± 0.60 % injected dose per gram
  Tumor radioactivity: 3.59 ± 0.73 % injected dose per gram
A431 tumor [2]; 12 h after injection
  Blood radioactivity: 0.06 ± 0.01 % injected dose per gram
  Brain radioactivity: 0.04 ± 0.01 % injected dose per gram
  Heart radioactivity: 0.14 ± 0.02 % injected dose per gram
  Kidney radioactivity: 1.06 ± 0.14 % injected dose per gram
  Liver radioactivity: 1.55 ± 0.32 % injected dose per gram
  Lung radioactivity: 0.61 ± 0.18 % injected dose per gram
  Muscle radioactivity: 0.09 ± 0.02 % injected dose per gram
  Pancreas radioactivity: 0.41 ± 0.06 % injected dose per gram
  Spleen radioactivity: 0.21 ± 0.01 % injected dose per gram
  Stomach radioactivity: 0.69 ± 0.51 % injected dose per gram
  Tumor radioactivity: 1.72 ± 0.42 % injected dose per gram
A431 tumor [2]; 24 h after injection
  Blood radioactivity: 0.03 ± 0.00 % injected dose per gram
  Brain radioactivity: 0.02 ± 0.00 % injected dose per gram
  Heart radioactivity: 0.05 ± 0.01 % injected dose per gram
  Kidney radioactivity: 0.36 ± 0.04 % injected dose per gram
  Liver radioactivity: 0.51 ± 0.35 % injected dose per gram
  Lung radioactivity: 0.18 ± 0.07 % injected dose per gram
  Muscle radioactivity: 0.03 ± 0.01 % injected dose per gram
  Pancreas radioactivity: 0.14 ± 0.02 % injected dose per gram
  Spleen radioactivity: 0.07 ± 0.03 % injected dose per gram
  Stomach radioactivity: 0.38 ± 0.19 % injected dose per gram
  Tumor radioactivity: 1.53 ± 0.15 % injected dose per gram
[3]; A431 P2 membranes, Scatchard analysis
  Bmax: 27.0 ± 3.43 pmol/mg protein
[3]; A431 membranes
  Hill's constant value: 1.02
NALM6 cell membranes
  binding to cell membranes: undetectable
A431 tumor [4]
  SPECT images of tumors (in words): very clear
